Measured values as given in patent publication US5869457A, “Modified proteins and their use for controlling viral infections” (Rijksuniversiteit Te Groningen, priority 1991, dated 1999).

What was measured:
[1] = test system: OKT4A epitope of the CD4 receptor; test: CD4 immunofluorescence assay, OKT4A mAb-CD4 interaction on MT-4 cells; details: at 25 μg/ml
plasma = test: anticoagulant action determined as APTT; type: biochemical
Procedure: The compounds were dissolved in PBS of pH 7.2 and 30 μl were added to 270 μl of plasma.
APTT=activated partial thromboplastin time (seconds) APTT was determined electromechanically using standard methods.

Compound	inhibition of OKT4A mAb-CD4 interaction [1]	Anticoagulant action, APTT (plasma; 0.01 μg/ml)	Anticoagulant action, APTT (plasma; 0.1 μg/ml)	Anticoagulant action, APTT (plasma; 1 μg/ml)	Anticoagulant action, APTT (plasma; 3 μg/ml)	Anticoagulant action, APTT (plasma; 5 μg/ml)	Anticoagulant action, APTT (plasma; 10 μg/ml)	Anticoagulant action, APTT (plasma; 100 μg/ml)	anticoagulant activity as side effect (plasma; in words)
O=C(O)C1=CC(=C(c2ccc(O)c(C(=O)O)c2)c2ccc(O)c(C(=O)O)c2)C=CC1=O [Aurintricarboxylic acid (ATA), Aurintricarboxylic acid]	completely inhibited	–	–	–	–	–	–	–	–
Heparin	–	38.4 s	40.3 s	40.5 s	65 s	140 s	220 s	> 400 s	serious anticoagulant activity
